Where a name gives a salt, the structure may show the parent alone. Read-outs that look alike come from different tables or passages of the source.
Test system: XBP1s-luc 293 LUC
Test: cellular PD assay, XBP1s-LUC reporter (Example 903)
Assay type: cell-based
Settings: read-out: XBP1s-luc 293 LUC (IC50)
Method in brief: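 Cellular IRE1α pathway activity was quantified from the luciferase signal of an XBP1-Luc reporter, where the luciferase fusion is in frame and expressed only from the spliced XBP1 transcript.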

Row | Compound | IC50 (Table 1) | IC50 (Table 2)
1 | Cc1ccc2c(NC(=O)CC3CCCCC3)c(F)ccc2c1Oc1ncccc1-c1ccnc(N[C@H]2CCCNC2)n1 [Example 364, (S)-2-Cyclohexyl-N-(2-fluoro-6-methyl-5-((3-(2-(piperidin-3-ylamino)pyrimidin-4-yl)pyridin-2-yl)oxy)naphthalen-1-yl)acetamide] | 216 nM | –
2 | Cc1ccc2c(NC(=O)C3(C)CC3)c(F)ccc2c1Oc1ncccc1-c1ccnc(N[C@H]2CCCNC2)n1 [Example 365, (S)—N-(2-Fluoro-6-methyl-5-((3-(2-(piperidin-3-ylamino)pyrimidin-4-yl)pyridin-2-yl)oxy)naphthalen-1-yl)-1-methylcyclopropanecarboxamide] | 438 nM | –
3 | Cc1ccc2c(NC(=O)CC3CCCCC3)c(F)ccc2c1Oc1ncccc1-c1ccnc(N[C@@H]2CNC[C@H](C)C2)n1 [Example 366, 2-Cyclohexyl-N-(2-fluoro-6-methyl-5-((3-(2-(((3S,5R)-5-methylpiperidin-3-yl)amino)pyrimidin-4-yl)pyridin-2-yl)oxy)naphthalen-1-yl)acetamide] | 101 nM | –
4 | CCCS(=O)(=O)Nc1c(F)ccc2c(Oc3ncccc3-c3ccnc(N[C@@H]4CNC[C@H](C)C4)n3)c(C)ccc12 [Example 367, N-(2-Fluoro-6-methyl-5-((3-(2-(((3S,5R)-5-methylpiperidin-3-yl)amino)pyrimidin-4-yl)pyridin-2-yl)oxy)naphthalen-1-yl)propane-1-sulfonamide] | 14.5 nM | –
5 | Cc1ccc2c(NC(=O)C3(C)CC3)cccc2c1Oc1ncccc1-c1ccnc(N[C@@H]2CNC[C@H](C)C2)n1 [Example 368, 1-Methyl-N-(6-methyl-5-((3-(2-(((3S,5R)-5-methylpiperidin-3-yl)amino)pyrimidin-4-yl)pyridin-2-yl)oxy)naphthalen-1-yl)cyclopropanecarboxamide] | 214 nM | –
6 | Cc1ccc2c(NS(=O)(=O)CC(C)C)c(F)ccc2c1Oc1ncccc1-c1ccnc(N[C@@H]2CNC[C@H](C)C2)n1 [Example 369, N-(2-Fluoro-6-methyl-5-((3-(2-(((3S,5R)-5-methylpiperidin-3-yl)amino)pyrimidin-4-yl)pyridin-2-yl)oxy)naphthalen-1-yl)-2-methylpropane-1-sulfonamide] | 19.4 nM | –
7 | CCCS(=O)(=O)Nc1c(Cl)ccc2c(Oc3ncccc3-c3ccnc(N[C@H]4CCCNC4)n3)c(C)ccc12 [Example 370, (S)—N-(2-Chloro-6-methyl-5-((3-(2-(piperidin-3-ylamino)pyrimidin-4-yl)pyridin-2-yl)oxy)naphthalen-1-yl)propane-1-sulfonamide] | 27.6 nM | –
8 | Cc1nc(CNc2c(F)ccc3c(Oc4ncccc4-c4ccnc(N[C@H]5CCCNC5)n4)c(C)ccc23)cs1 [Example 371, (S)-4-(2-((6-Fluoro-2-methyl-5-(((2-methylthiazol-4-yl)methyl)amino)naphthalen-1-yl)oxy)pyridin-3-yl)-N-(piperidin-3-yl)pyrimidin-2-amine] | 381 nM | –
9 | Cc1ccc2c(NC(=O)CC(C)(C)C)c(F)ccc2c1Oc1ncccc1-c1ccnc(N[C@@H]2CNC[C@H](C)C2)n1 [Example 374, N-(2-Fluoro-6-methyl-5-((3-(2-(((3S,5R)-5-methylpiperidin-3-yl)amino)pyrimidin-4-yl)pyridin-2-yl)oxy)naphthalen-1-yl)-3,3-dimethylbutanamide] | 39.4 nM | –
10 | Cc1ccc2c(NS(=O)(=O)CC(F)(F)F)c(F)ccc2c1Oc1ncccc1-c1ccnc(N[C@@H]2CNC[C@H](C)C2)n1 [Example 375, 2,2,2-Trifluoro-N-(2-fluoro-6-methyl-5-((3-(2-(((3S,5R)-5-methylpiperidin-3-yl)amino)pyrimidin-4-yl)pyridin-2-yl)oxy)naphthalen-1-yl)ethanesulfonamide] | 13.2 nM | –
11 | Cc1ccc2c(Oc3ncccc3-c3ccnc(N[C@H]4CCCNC4)n3)c(C)ccc2c1NS(=O)(=O)CC(C)C [Example 376, (S)—N-(2,6-Dimethyl-5-((3-(2-(piperidin-3-ylamino)pyrimidin-4-yl)pyridin-2-yl)oxy)naphthalen-1-yl)-2-methylpropane-1-sulfonamide] | 73.5 nM | –
12 | Cc1ccc2c(NC[C@H](O)C(F)(F)F)c(F)ccc2c1Oc1ncccc1-c1ccnc(N[C@H]2CCCNC2)n1 [Example 377, (S)-1,1,1-Trifluoro-3-((2-fluoro-6-methyl-5-((3-(2-((S)-piperidin-3-ylamino)pyrimidin-4-yl)pyridin-2-yl)oxy)naphthalen-1-yl)amino)propan-2-ol] | 10.2 nM | –
13 | Cc1ccc2c(NS(=O)(=O)Cc3ccccc3)c(F)ccc2c1Oc1ncccc1-c1ccnc(N[C@@H]2CNC[C@H](C)C2)n1 [Example 378, N-(2-Fluoro-6-methyl-5-((3-(2-(((3S,5R)-5-methylpiperidin-3-yl)amino)pyrimidin-4-yl)pyridin-2-yl)oxy)naphthalen-1-yl)-1-phenylmethanesulfonamide] | 1.41 nM | –
14 | Cc1ccc2c(N[C@H](C)[C@@H](C)O)cccc2c1Oc1ncccc1-c1ccnc(N[C@H]2CCCNC2)n1 [Example 381, anti-3-((6-Methyl-5-((3-(2-(((S)-piperidin-3-yl)amino)pyrimidin-4-yl)pyridin-2-yl)oxy)naphthalen-1-yl)amino)butan-2-ol] | 403 nM | –
15 | Cc1ccc2c(NC3CCCC[C@H]3O)cccc2c1Oc1ncccc1-c1ccnc(N[C@H]2CCCNC2)n1 (stereo partly drawn) [Example 384, trans-2-((6-Methyl-5-((3-(2-((S)-piperidin-3-ylamino)pyrimidin-4-yl)pyridin-2-yl)oxy)naphthalen-1-yl)amino)cyclohexanol] | 146 nM | –
16 | CCCS(=O)(=O)Nc1cccc2c(Oc3ncc(Cl)cc3-c3ccnc(N[C@H]4CCCNC4)n3)c(C)ccc12 [Example 385, (S)—N-(5-((5-Chloro-3-(2-(piperidin-3-ylamino)pyrimidin-4-yl)pyridin-2-yl)oxy)-6-methylnaphthalen-1-yl)propane-1-sulfonamide] | 366 nM | –
17 | Cc1ccc2c(NS(=O)(=O)Cc3ccccc3F)c(F)ccc2c1Oc1ncccc1-c1ccnc(N[C@H]2CCCNC2)n1 [Example 391, (S)—N-(2-Fluoro-6-methyl-5-((3-(2-(piperidin-3-ylamino)pyrimidin-4-yl)pyridin-2-yl)oxy)naphthalen-1-yl)-1-(2-fluorophenyl)methanesulfonamide] | 2.77 nM | –
18 | Cc1ccc2c(NS(=O)(=O)Cc3ccccc3C(F)(F)F)c(F)ccc2c1Oc1ncccc1-c1ccnc(N[C@H]2CCCNC2)n1 [Example 392, (S)—N-(2-Fluoro-6-methyl-5-((3-(2-(piperidin-3-ylamino)pyrimidin-4-yl)pyridin-2-yl)oxy)naphthalen-1-yl)-1-(2-(trifluoromethyl)phenyl)methanesulfonamide] | 6.32 nM | –
19 | CCCCS(=O)(=O)Nc1c(F)ccc2c(Oc3ncccc3-c3ccnc(N[C@H]4CCCNC4)n3)c(C)ccc12 [Example 397, (S)—N-(2-Fluoro-6-methyl-5-((3-(2-(piperidin-3-ylamino)pyrimidin-4-yl)pyridin-2-yl)oxy)naphthalen-1-yl)butane-1-sulfonamide hydrochloride] | – | 34 nM
20 | Cc1ccc2c(NS(=O)(=O)CCC(F)F)c(F)ccc2c1Oc1ncccc1-c1ccnc(N[C@H]2CCCNC2)n1 [Example 398, (S)-3,3-Difluoro-N-(2-fluoro-6-methyl-5-((3-(2-(piperidin-3-ylamino)pyrimidin-4-yl)pyridin-2-yl)oxy)naphthalen-1-yl)propane-1-sulfonamide hydrochloride] | – | 22 nM
21 | Cc1ccc2c(NS(=O)(=O)CCC3CC3)c(F)ccc2c1Oc1ncccc1-c1ccnc(N[C@H]2CCCNC2)n1 [Example 399, (S)-2-Cyclopropyl-N-(2-fluoro-6-methyl-5-((3-(2-(piperidin-3-ylamino)pyrimidin-4-yl)pyridin-2-yl)oxy)naphthalen-1-yl)ethanesulfonamide hydrochloride] | – | 72 nM
22 | Cc1ccc2c(NS(=O)(=O)CC3CCC3)c(F)ccc2c1Oc1ncccc1-c1ccnc(N[C@H]2CCCNC2)n1 [Example 400, (S)-1-Cyclobutyl-N-(2-fluoro-6-methyl-5-((3-(2-(piperidin-3-ylamino)pyrimidin-4-yl)pyridin-2-yl)oxy)naphthalen-1-yl)methanesulfonamide hydrochloride] | – | 26 nM
23 | Cc1ccc2c(NS(=O)(=O)CC(C)C)c(F)ccc2c1Oc1ncccc1-c1ccnc(N[C@@H]2CNC[C@@H](C)C2)n1 [Example 401, N-[2-Fluoro-6-methyl-5-[[3-[2-[[(3S,5S)-5-methyl-3-piperidyl]amino]pyrimidin-4-yl]-2-pyridyl]oxy]-1-naphthyl]-2-methyl-propane-1-sulfonamide hydrochloride] | – | 67 nM
24 | Cc1ccc2c(NS(=O)(=O)Cc3cscn3)c(F)ccc2c1Oc1ncccc1-c1ccnc(N[C@H]2CCCNC2)n1 [Example 402, (S)—N-(2-Fluoro-6-methyl-5-((3-(2-(piperidin-3-ylamino)pyrimidin-4-yl)pyridin-2-yl)oxy)naphthalen-1-yl)-1-(thiazol-4-yl)methanesulfonamide hydrochloride] | – | 51 nM
25 | Cc1ccc2c(NS(=O)(=O)c3ccc4c(c3)OCO4)c(F)ccc2c1Oc1ncccc1-c1ccnc(N[C@H]2CCCNC2)n1 [Example 403, N-[2-Fluoro-6-methyl-5-[[3-[2-[[(3S)-3-piperidyl]amino]pyrimidin-4-yl]-2-pyridyl]oxy]-1-naphthyl]-1,3-benzodioxole-5-sulfonamide] | – | 44 nM
26 | COC(C)CS(=O)(=O)Nc1c(F)ccc2c(Oc3ncccc3-c3ccnc(N[C@H]4CCCNC4)n3)c(C)ccc12 (stereo partly drawn) [Example 404, N-(2-Fluoro-6-methyl-5-((3-(2-(((S)-piperidin-3-yl)amino)pyrimidin-4-yl)pyridin-2-yl)oxy)naphthalen-1-yl)-2-methoxypropane-1-sulfonamide] | – | 34 nM
27 | Cc1ccc2c(NS(=O)(=O)CC3CC3)c(F)ccc2c1Oc1ncccc1-c1ccnc(N[C@H]2CCCNC2)n1 [Example 405, (S)-1-Cyclopropyl-N-(2-fluoro-6-methyl-5-((3-(2-(piperidin-3-ylamino)pyrimidin-4-yl)pyridin-2-yl)oxy)naphthalen-1-yl)methanesulfonamide hydrochloride] | – | 25 nM

Source: patent publication US10968203B2, “Pyrimidinyl-pyridyloxy-naphthyl compounds and methods of treating IRE1-related diseases and disorders” (Genentech, Inc., priority 2017, dated 2021)
